# Data from article PMC10955127 (Frontiers in Pharmacology, 2024).
# Like-named read-outs stand apart in the source and are kept apart here.
# Columns and labels:
# thyroid pathway = tested on: thyroid pathway; design: method as in ToxCast database; conditions: ref ToxCast database; cited from earlier work
# androgen receptor [1] = tested on: androgen receptor; design: method as in ToxCast database; conditions: ref ToxCast database; cited from earlier work
# rats = conditions: teratogenic and embryotoxic effects; ref SCCS, 2023b; cited from earlier work
# estrogen receptor = tested on: estrogen receptor; design: method as in ToxCast database; conditions: ref ToxCast database; cited from earlier work
# androgen receptor [2] = tested on: androgen receptor; design: method as in ToxCast database; conditions: ref ToxCast database; cited from earlier work; remark: listed apart in the source
# HepG2 cells = assay: Whole-genome transcriptomics dose response (toxicogenomics); conditions: analysis method 1; HepG2, 24 h
# in vitro = in vitro ADME
# Protocol: […]. Samples were precipitated with an equal volume of acetonitrile containing internal standards (1 μM diazepam, 1 μM griseofulvin, 10 μM diclofenac) and then centrifuged (4800 x g, room temperature, 5 min) before analysis by UHPLC-MS/HRMS.
# The amount of compound in the samples was expressed as percentage of remaining compound compared to time point zero (=100%). These percentages were plotted against the corresponding time points. In vitro intrinsic clearance (CLint) and half-life (t1/2) estimates were determined using the rate of precursor disappearance and following formula, based on the well-stirred liver model (Obach 1999):
# t1/2 = half-life [min]; k = slope from the linear regression of log [test compound] versus time plot [1/min]
# Where CLint = in vitro intrinsic clearance [μl/min/10^6 cells]; t1/2 = half-life [min]; k = slope of the linear regression of log [test compound] versus time plot [1/min]; V = ratio of incubation volume and cell number and fu = unbound fraction in the blood. […]
# [3] = tested on: HepG2 reporter cell lines; assay: ToxProfiler cell stress assay; format: cell-based, human
# Human OAT2v1 = Human OAT2v1 (Homo sapiens, UniProt Q9Y694)
# Chain of Human OAT2v1 (Q9Y694 1-546 isoform Q9Y694-2): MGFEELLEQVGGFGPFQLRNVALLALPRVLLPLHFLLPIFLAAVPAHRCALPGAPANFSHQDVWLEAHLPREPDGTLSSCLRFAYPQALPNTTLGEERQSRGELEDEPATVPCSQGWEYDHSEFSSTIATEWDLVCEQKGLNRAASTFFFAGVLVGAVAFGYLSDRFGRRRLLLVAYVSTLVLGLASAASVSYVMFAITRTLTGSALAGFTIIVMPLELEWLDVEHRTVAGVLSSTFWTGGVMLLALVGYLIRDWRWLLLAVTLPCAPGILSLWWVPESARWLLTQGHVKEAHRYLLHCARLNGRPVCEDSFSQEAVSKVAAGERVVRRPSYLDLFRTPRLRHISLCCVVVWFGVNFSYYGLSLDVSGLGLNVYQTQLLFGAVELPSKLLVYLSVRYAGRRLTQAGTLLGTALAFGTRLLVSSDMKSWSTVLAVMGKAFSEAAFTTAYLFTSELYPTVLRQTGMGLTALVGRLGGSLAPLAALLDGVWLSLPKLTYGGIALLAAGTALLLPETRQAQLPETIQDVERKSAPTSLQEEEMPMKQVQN
# [4] = tested on: hiPSCs differentiated into cardiomyocytes, hepatocytes, or neural rosettes; conditions: human
# [5] = ref PubChem or the ECHA database; cited from earlier work
# [6] = In vitro skin penetration and metabolism, fresh viable pig skin on static Franz cells; conditions: 24 h; epidermis + dermis + receptor fluid
# Text: Fresh viable pig skin (without hot steam treatment, by-product from meat industry) was obtained from a local, commercial butcher (Hammoor, Germany). The back skin was from female pigs (bred from “Dänische Landrasse” (female) and Pietrain (male) pigs, ~130 days old, 100 kg body weight). Pig skin samples were gently dry-shaved and washed with water before use. For the experiment, 2 replicate discs from each of 3 donors were used.
# Skin of full-thickness was mounted on static Franz cells with a 4.9 cm² application area. The receptor compartment of the diffusion cell was filled with approx. 5 ml RF (1% BSA, 0.9% NaCl, 0.05% gentamycin sulfate in water), above a magnetic stirrer set to low rotation. […] The experiment was conducted using non-occluded conditions.
# The dermal absorption was calculated as the total amount present within epidermis (without the amount in the total SC strips), dermis and RF.
structure (smiles),measurement,setting,value
"O=C(O)c1ccccc1O [SA, salicylic acid]",Thyroid pathway mRNA induction: Call,thyroid pathway,Negative
same,Androgen pathway mRNA induction: Call,androgen receptor [1],Negative
same,NOAEL,rats,75 mg/kg bw
same,Estrogen pathway Dimerisation: Call,estrogen receptor,Negative
same,Androgen pathway Dimerisation: Call,androgen receptor [2],Negative
same,"PoD (BMDL, lowest pathway)",HepG2 cells,213 µM
same,Further metabolism in PHH,in vitro,not metabolized further
same,half-life at 20 µM,"in vitro; both sexes, human, hepatocytes, Half-life in PHH",> 15.8 h
same,hepatocyte CLint at 20 µM,"in vitro; both sexes, human, hepatocytes, In vitro intrinsic clearance (CLint, in vitro)",~0.9 µL/min/1e6 cells
same,Further metabolism in PHH,"in vitro; both, human, 240 min, 20 µM",not further metabolized
same,PoD,"[3]; ICAM1 (indicating inflammation), tested 10 μM to 10 mM","4,000 µM"
same,Stress pathway reporters activated,[3]; seven reporters,activated only ICAM1
same,Substrate of OAT2v1 (uptake),Human OAT2v1,not a substrate
same,PoD,[4],500 µM
same,Vapor pressure,[5],0.0208 Pa
same,Dermal absorption of individual analytes,[6],6.9 ± 0.4 percentage of the applied dose
